# Tests used:
# [1] = molecular target: T1, Retinoic acid receptor RXR-alpha/oxysterols receptor LXR-alpha (Homo sapiens, UniProt P19793); assay: Competitive antagonist activity at human LXR-alpha/RXRA expressed in African green monkey COS7 cells assessed as reduction in bexarotene-induced receptor activation by RXRE-dependent luciferase reporter gene assay; format: cell-based; conditions: read-out: pA2 (converted)
# T1 sequence (P19793 whole entry): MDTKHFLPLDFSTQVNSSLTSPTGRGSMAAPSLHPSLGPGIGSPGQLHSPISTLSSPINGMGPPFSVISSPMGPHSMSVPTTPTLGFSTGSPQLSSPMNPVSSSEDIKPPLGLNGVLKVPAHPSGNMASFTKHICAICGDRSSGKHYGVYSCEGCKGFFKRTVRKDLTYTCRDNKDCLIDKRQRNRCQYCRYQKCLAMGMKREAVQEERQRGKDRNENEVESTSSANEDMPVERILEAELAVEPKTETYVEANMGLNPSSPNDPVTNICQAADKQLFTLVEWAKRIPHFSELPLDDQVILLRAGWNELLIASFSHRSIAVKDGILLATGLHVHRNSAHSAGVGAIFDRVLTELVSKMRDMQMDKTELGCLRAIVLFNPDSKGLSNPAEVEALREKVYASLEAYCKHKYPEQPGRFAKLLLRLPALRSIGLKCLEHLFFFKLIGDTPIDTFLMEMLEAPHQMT
# T1 sequence (Q13133 whole entry): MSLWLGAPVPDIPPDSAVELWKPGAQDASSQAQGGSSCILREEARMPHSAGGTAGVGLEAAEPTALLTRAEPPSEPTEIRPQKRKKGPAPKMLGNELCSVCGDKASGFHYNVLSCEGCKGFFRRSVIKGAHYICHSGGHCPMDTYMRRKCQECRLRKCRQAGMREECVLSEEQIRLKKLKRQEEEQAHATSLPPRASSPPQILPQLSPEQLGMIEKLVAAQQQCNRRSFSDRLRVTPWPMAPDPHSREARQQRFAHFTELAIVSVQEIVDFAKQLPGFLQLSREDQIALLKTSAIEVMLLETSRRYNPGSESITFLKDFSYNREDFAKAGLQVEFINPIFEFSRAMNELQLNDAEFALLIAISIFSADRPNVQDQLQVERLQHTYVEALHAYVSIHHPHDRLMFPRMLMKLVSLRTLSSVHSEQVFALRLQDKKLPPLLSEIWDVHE
# [2] = molecular target: T2, Retinoic acid receptor RXR-alpha (Homo sapiens, UniProt P19793); assay: Binding affinity to human RXR-alpha by ITC analysis
# T2 sequence (P19793 whole entry): T1 sequence (P19793 whole entry)
# [3] = molecular target: T2, Retinoic acid receptor RXR-alpha; assay: Competitive antagonist activity at human RXRA/RXRA expressed in African green monkey COS7 cells assessed as reduction in bexarotene-induced receptor activation by RXRE-dependent luciferase reporter gene assay; format: cell-based; conditions: read-out: pA2 (converted)
# [4] = molecular target: T2, Retinoic acid receptor RXR-alpha; assay: Displacement of [3H]-9-cis retinoic acid from recombinant human RXR-alpha LBD by liquid scintillation counting based competitive ligand binding assay
# RXR alpha/PPAR gamma = RXR alpha/PPAR gamma (Homo sapiens, UniProt P19793); assay: Competitive antagonist activity at human PPAR-gamma/RXRA expressed in African green monkey COS7 cells assessed as reduction in bexarotene-induced receptor activation by RXRE-dependent luciferase reporter gene assay; format: cell-based; conditions: read-out: pA2 (converted)
# [5] = molecular target: T2, Retinoic acid receptor RXR-alpha; assay: Binding affinity to human RXR-alpha LBD incubated for 2 hrs by tryptophan fluorescence quenching assay
# Sequence of RXR alpha/PPAR gamma (P37231 whole entry, one chain of several, the tested form may be a part): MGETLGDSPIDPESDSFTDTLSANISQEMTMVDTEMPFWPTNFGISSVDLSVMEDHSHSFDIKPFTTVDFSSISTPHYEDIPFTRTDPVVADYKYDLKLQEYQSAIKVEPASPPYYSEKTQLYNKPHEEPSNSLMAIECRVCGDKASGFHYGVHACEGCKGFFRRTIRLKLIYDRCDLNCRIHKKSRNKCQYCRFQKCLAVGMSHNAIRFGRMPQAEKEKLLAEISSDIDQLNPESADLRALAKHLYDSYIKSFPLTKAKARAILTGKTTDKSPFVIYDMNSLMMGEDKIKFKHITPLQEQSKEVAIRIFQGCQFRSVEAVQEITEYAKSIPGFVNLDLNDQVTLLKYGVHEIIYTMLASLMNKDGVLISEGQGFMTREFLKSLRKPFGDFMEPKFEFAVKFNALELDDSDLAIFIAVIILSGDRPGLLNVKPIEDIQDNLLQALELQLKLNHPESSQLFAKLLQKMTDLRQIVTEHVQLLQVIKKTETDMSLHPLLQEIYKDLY
structure (smiles),measurement,setting,value
CCCCCCOc1cc2c(cc1N(C)c1ncc(C(=O)O)cn1)C(C)(C)CCC2(C)C,Kb,[1],302 nM
same,Kd,[2],1350 nM
same,Kb,[3],63.1 nM
same,Ki,[4],1340 nM
same,Kb,RXR alpha/PPAR gamma,10 nM
same,Kd,[5],260 nM

# From ChEMBL document CHEMBL4765474, “Discovery of a "Gatekeeper" Antagonist that Blocks Entry Pathway to Retinoid X Receptors (RXRs) without Allosteric Ligand Inhibition in Permissive RXR Heterodimers” (J Med Chem, 2021)
